Assay [1] has as its system isolated swine trachea. Put plainly: ASL layer height by synchrotron phase contrast imaging, isolated wild-type swine trachea (ex vivo).
Assay [2] relates to ex vivo swine trachea preparations. Nature of the assay: Mucociliary clearance assay, tantalum disk movement on excised swine trachea.
Assay [3] deals with airway submucosal glands. Nature of the assay: Fluid secretion assay of airway submucosal glands (droplets under oil). The note with it: WT swine, FIG. 12. Here is the method: To confirm that both exemplary neuronal agonists capsaicin and menthol stimulate active fluid secretion by airway submucosal glands in WT swine, the effect of exemplary neuronal agonists menthol and capsaicin was on fluid secretion rate was measured using the secretion assay as described elsewhere^21. The mucosal layer from trachea or primary bronchus, with underlying glands, was dissected from the cartilage. A piece of tissue of about 1 cm^2 was pinned mucosal side up and mounted in a 35-mm-diameter plastic Petri dish lined with Sylgard (Dow Corning Corp). The serosal side was immersed in a bathing solution ( 1 ml volume), and the mucosa was in air. Before experimentation, the mucosal surface was gently cleaned and blotted dry with cotton swabs and further dried with a stream of air, after water-saturated mineral oil was placed on the surface.

Assay [4] concerns live wild-type swine. Nature of the assay: ASL layer height by synchrotron phase contrast imaging, live wild-type swine. The note with it: added alone to HTS, WT swine in vivo, lesser extent than with capsaicin, FIG. 11.
Setting [5] is: ex vivo wild-type trachea, HTS 7% w/v NaCl, 18 min.

Each structure is given as a SMILES string. Read-outs that look alike come from different tables or passages of the source.

As for `N=C(N)NC(=O)c1nc(Cl)c(N)nc1N` [amiloride], in assay [1] (setting [5]), the “effect on HTS-triggered ASL layer height increase” value is on record as “did not affect HTS treatment”.
With `Ic1ccccc1CN[C@@H]1C2CCN(CC2)[C@@H]1C(c1ccccc1)c1ccccc1` [L-703606], the “effect on HTS-triggered ASL layer height increase” value in assay [1] (setting [5]) is given as “significantly reduced”. Moreover, the “effect on ASL layer height in ITS-treated preparations” value in assay [1] (ex vivo wild-type trachea, ITS 0.9% w/v NaCl, 18 min) is on record as “had no effect”. Further, the “effect on response to HTS treatment in preparations incubated with CFTRinh172” value in assay [1] (ex vivo, CFTRinh172 100 μM (model of airways without CFTR function), 18 min) was “unaffected”.
Regarding `COc1cc(CNC(=O)CCCC/C=C/C(C)C)ccc1O` [capsaicin, (6E)-N-[(4-Hydroxy-3-methoxyphenyl)methyl]-8-methylnon-6-enamide], the “HTS-triggered increase in mucociliary clearance” value in assay [2] (WT swine airways, added to HTS, FIG. 13) is recorded as “augmented”. In assay [2] (WT swine airways, added to ITS, FIG. 13), the “ITS-triggered increase in mucociliary clearance” value is reported as “augmented”. In addition, in assay [3], the “ASL secretion by the submucosal glands” value was “triggers significant ASL secretion”.
For `C=C(C)[C@@H]1CC[C@@H](C)C[C@H]1O` [(−)-isopulegol, (1R,2S,5R)-2-Isopropenyl-5-methylcyclohexanol], in assay [2] (wild-type swine ex vivo, added to HTS, measured at 0, 90 and 150 min, FIG. 15), the “duration of HTS-triggered mucociliary clearance” value is listed as “extended the duration of HTS-triggered mucociliary clearance”.
As for `CC1CCC(C(C)C)C(O)C1` (stereo not shown) [menthol, 5-Methyl-2-(propan-2-yl)cyclohexan-1-ol], the “ASL secretion by the submucosal glands” value in assay [3] is recorded as “triggers significant ASL secretion”. In assay [4], the duration of treatment entry was “increase the intensity and duration of treatment”; the intensity of treatment entry is “increase the intensity and duration of treatment”.
For `O=C(O)c1ccc(/C=C2\SC(=S)N(c3cccc(C(F)(F)F)c3)C2=O)cc1` [CFTRinh172], in assay [1] (wild-type swine trachea preparations ex vivo, FIG. 8), the “effect on HTS-triggered ASL secretion, time course” value is “decreases the effect of HTS on ASL secretion”.
Regarding `CN1[C@@H]2CC[C@H]1C[C@@H](OC(=O)C(CO)c1ccccc1)C2` (stereo partly shown) [atropine], in assay [1], the “effect on ASL layer height in ITS-treated preparations” value is on record as “had no effect”, the “effect on HTS-triggered ASL layer height increase” value is reported as “reduced HTS-triggered ASL secretion”, the “effect on ITS-treated preparations incubated with CFTRinh172” value was “had no effect” and the “effect on response to HTS treatment in preparations incubated with CFTRinh172” value was “reduced the response to HTS treatment”.

(Values after US20210228511A1, “NEURONAL AGONISTS AND ISOTONIC OR HYPERTONIC SALINE FOR TREATING RESPIRATORY DISEASES” (University of Saskatchewan, priority 2020, published 2021).)
